Drug sensitivity score data for 32 compounds are collected here from the supplement of paper PMC11616607.

Molecules are shown by their SMILES.

The test system of one assay is HOSE2C. Kind of assay: drug sensitivity score (DSS) from 5-point dose-response viability curve (DSS (area-under-curve based score)); higher = more sensitive (stronger growth inhibition or killing); extreme values may be limits of the assay. Conditions: exposure time: 72 h; concentration range: 5 concentrations over 10,000-fold range. The gist of the method:
(§1)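 Drug sensitivity scores were calculated in Breeze software for each cell line and drug pair; higher scores indicate more sensitivity. A score of zero indicates no response. The underlying assay used 384-well plates: drugs were placed by an Echo 550 acoustic dispenser at five concentrations spanning a 10,000-fold range, 1,500 ovarian cancer or normal ovarian cells were added per well, and cells were kept 3 days at 37°C, 5% CO2. Viability was then measured with CellTiter-Glo luminescence on a PHERAstar FS.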
The compound `CCNC(=O)c1noc(-c2cc(C(C)C)c(O)cc2O)c1-c1ccc(CN2CCOCC2)cc1` [Luminespib] yielded a drug sensitivity score of 23.

`O=C(O)CC[C@H]1CC[C@@](c2cc(F)ccc2F)(S(=O)(=O)c2ccc(Cl)cc2)CC1` [MK-0752] registered a drug sensitivity score of 0.

As for `NC1(c2ccc(-c3nc4ccn5c(=O)[nH]nc5c4cc3-c3ccccc3)cc2)CCC1` [MK-2206], the drug sensitivity score was found to be 2.6.

Compound `O=C(c1cccc(Cl)c1F)N1CCN(Cc2cccc(Nc3nccs3)n2)CC1` [MK-8745] registered a drug sensitivity score of 3.5.

Turning to `Cn1cc(-c2cnn3c(N)c(Br)c([C@@H]4CCCNC4)nc23)cn1` [MK-8776], the drug sensitivity score is 5.1.

For the compound `Cc1cnc(-c2ccccc2C(C)C)nc1NCc1ccc(-n2ccnn2)cc1` [ML323], the drug sensitivity score stood at 0.

`O=C(CCNC(=O)c1ccc(OC(F)(F)F)cc1)N[C@@H]1CCCc2ccccc21` [ML390] showed a drug sensitivity score of 13.4.

Take `O=C(Nc1cccc(NC(=O)c2cccc(O)c2O)c1)c1cccc(O)c1O` [MST-312]: the drug sensitivity score was determined as 10.5.

For `CNC(=O)[C@@H](NC(=O)[C@H](CC(C)C)[C@H](O)C(=O)NO)C(C)(C)C` [Marimastat], the drug sensitivity score worked out at 0.

The compound `Cc1ccc(NC(=O)c2ccc(CN3CCN(C)CC3)cc2)cc1Nc1nc(-c2cccnc2)cs1` [Masitinib] showed a drug sensitivity score of 1.3.

Take `CC(=O)O[C@]1(C(C)=O)CC[C@H]2[C@@H]3C=C(C)C4=CC(=O)CC[C@]4(C)[C@H]3CC[C@@]21C` [Megestrol acetate]: the drug sensitivity score was found to be 0.

`CCN(CC)CCCC(C)Nc1c2ccc(Cl)cc2nc2ccc(OC)cc12` (stereo not drawn) [Mepacrine] yielded a drug sensitivity score of 8.2.

`S=c1[nH]cnc2nc[nH]c12` [Mercaptopurine]: the drug sensitivity score is 0.

The compound `Cc1ccc(C(=O)Nc2ccc(Oc3cc4cnn(C)c4cc3-c3cn[nH]c3)c(F)c2)c(=O)n1-c1ccc(F)cc1` [Merestinib] returned a drug sensitivity score of 0.

`CN(C)C(=N)NC(=N)N` [Metformin] had a drug sensitivity score of 0.

Regarding `CN(Cc1cnc2nc(N)nc(N)c2n1)c1ccc(C(=O)N[C@@H](CCC(=O)O)C(=O)O)cc1` [Methotrexate], the drug sensitivity score was 13.2.

The test system of the next assay is OVCAR5. Described as above. The following applies: exposure time: 72 h; concentration range: 5 concentrations over 10,000-fold range. The method, boiled down: as §1
On to `Nc1cc(COc2c(Cl)cc(C[C@H](N)C(=O)O)cc2Cl)c2oc(-c3ccccc3)nc2c1` [JPH203], for which the drug sensitivity score is 7.5.

In turn, `CC(C)NC(=O)COc1cccc(-c2nc(Nc3ccc4[nH]ncc4c3)c3ccccc3n2)c1` [KD025] showed a drug sensitivity score of 2.

The compound `CS(=O)(=O)CCNCc1ccc(-c2ccc3ncnc(Nc4ccc(OCc5cccc(F)c5)c(Cl)c4)c3c2)o1` [Lapatinib] gave a drug sensitivity score of 0.7.

`O=C(Nc1cnn2ccc(N3CCC[C@@H]3c3cc(F)ccc3F)nc12)N1CC[C@H](O)C1` [Larotrectinib] showed a drug sensitivity score of 0.

In the case of `Oc1ccc2c(c1)CC[C@H](c1ccccc1)[C@@H]2c1ccc(OCCN2CCCC2)cc1` [Lasofoxifene], the drug sensitivity score is 0.

In turn, `Nc1cccc2c1CN(C1CCC(=O)NC1=O)C2=O` (stereo not drawn) [Lenalidomide] displayed a drug sensitivity score of 0.

In turn, `COc1cc2nccc(Oc3ccc(NC(=O)NC4CC4)c(Cl)c3)c2cc1C(N)=O` [Lenvatinib] showed a drug sensitivity score of 0.

In turn, `N#Cc1ccc(C(c2ccc(C#N)cc2)n2cncn2)cc1` [Letrozole] had a drug sensitivity score of 0.

`Cc1ccc(F)c(NC(=O)Nc2ccc(-c3cccc4[nH]nc(N)c34)cc2)c1` [Linifanib] returned a drug sensitivity score of 0.

`C[C@]1(O)C[C@@H](c2nc(-c3ccc4ccc(-c5ccccc5)nc4c3)c3c(N)nccn32)C1` [Linsitinib]: the drug sensitivity score worked out at 2.7.

In turn, `CCNCCS(=O)(=O)NC[C@@]1(c2ccccc2)SC(NC(=O)C(C)(C)C)=NN1C(=O)C(C)(C)C` [Litronesib] displayed a drug sensitivity score of 19.

In the case of `Nc1nc(OCc2cc(Br)cs2)c2[nH]cnc2n1` [Lomeguatrib], the drug sensitivity score stood at 0.

The compound `NC(=O)N1CCC(CC(=O)N2CCC([C@H]3c4ncc(Br)cc4CCc4cc(Cl)cc(Br)c43)CC2)CC1` [Lonafarnib] came in with a drug sensitivity score of 9.1.

`Cc1c(F)cc(C(=O)NC2CC2)cc1-c1ccc(C(=O)NCC(C)(C)C)cn1` [Losmapimod] displayed a drug sensitivity score of 0.9.

Compound `CC[C@H](C)C(=O)O[C@H]1C[C@@H](C)C=C2C=C[C@H](C)[C@H](CC[C@@H]3C[C@@H](O)CC(=O)O3)[C@H]21` [Lovastatin] showed a drug sensitivity score of 0.8.

Turning to `CNC(=O)c1cccc2cc(Oc3ccnc4cc(OCC5(N)CC5)c(OC)cc34)ccc12` [Lucitanib], the drug sensitivity score was found to be 1.6.

`CCNC(=O)c1noc(-c2cc(C(C)C)c(O)cc2O)c1-c1ccc(CN2CCOCC2)cc1` [Luminespib] registered a drug sensitivity score of 15.2.

As to `O=C(O)CC[C@H]1CC[C@@](c2cc(F)ccc2F)(S(=O)(=O)c2ccc(Cl)cc2)CC1` [MK-0752], the drug sensitivity score amounted to 0.9.

`NC1(c2ccc(-c3nc4ccn5c(=O)[nH]nc5c4cc3-c3ccccc3)cc2)CCC1` [MK-2206] registered a drug sensitivity score of 2.

`O=C(c1cccc(Cl)c1F)N1CCN(Cc2cccc(Nc3nccs3)n2)CC1` [MK-8745] yielded a drug sensitivity score of 7.8.

As to `Cn1cc(-c2cnn3c(N)c(Br)c([C@@H]4CCCNC4)nc23)cn1` [MK-8776], the drug sensitivity score was 0.4.

`Cc1cnc(-c2ccccc2C(C)C)nc1NCc1ccc(-n2ccnn2)cc1` [ML323] returned a drug sensitivity score of 0.

With `O=C(CCNC(=O)c1ccc(OC(F)(F)F)cc1)N[C@@H]1CCCc2ccccc21` [ML390], the drug sensitivity score is 2.

On to `O=C(Nc1cccc(NC(=O)c2cccc(O)c2O)c1)c1cccc(O)c1O` [MST-312], for which the drug sensitivity score amounted to 5.

`CNC(=O)[C@@H](NC(=O)[C@H](CC(C)C)[C@H](O)C(=O)NO)C(C)(C)C` [Marimastat] displayed a drug sensitivity score of 1.6.

Compound `Cc1ccc(NC(=O)c2ccc(CN3CCN(C)CC3)cc2)cc1Nc1nc(-c2cccnc2)cs1` [Masitinib] returned a drug sensitivity score of 4.4.

The compound `CC(=O)O[C@]1(C(C)=O)CC[C@H]2[C@@H]3C=C(C)C4=CC(=O)CC[C@]4(C)[C@H]3CC[C@@]21C` [Megestrol acetate] showed a drug sensitivity score of 0.

The compound `CCN(CC)CCCC(C)Nc1c2ccc(Cl)cc2nc2ccc(OC)cc12` (stereo not drawn) [Mepacrine] came in with a drug sensitivity score of 13.1.

With `S=c1[nH]cnc2nc[nH]c12` [Mercaptopurine], the drug sensitivity score was 7.3.

In turn, `Cc1ccc(C(=O)Nc2ccc(Oc3cc4cnn(C)c4cc3-c3cn[nH]c3)c(F)c2)c(=O)n1-c1ccc(F)cc1` [Merestinib] displayed a drug sensitivity score of 0.9.

As for `CN(C)C(=N)NC(=N)N` [Metformin], the drug sensitivity score was determined as 0.

`CN(Cc1cnc2nc(N)nc(N)c2n1)c1ccc(C(=O)N[C@@H](CCC(=O)O)C(=O)O)cc1` [Methotrexate] had a drug sensitivity score of 13.8.
